Experimental data published in paper PMC11375786, “Induction of Paraptotic Cell Death in Cancer Cells by Triptycene–Peptide Hybrids and the Revised Mechanism of Paraptosis II” (Biochemistry, 2024).
Read-outs that look alike come from different tables or passages of the source. Peptide text beside a SMILES is read from it. * marks the point of attachment. Cbz = O=C(OCc1ccccc1)*; CH2F = FC*

Tests used:
A549 cells [1] = assay: cells
Experimental: (§1) HeLa S3 cells (human cervical carcinoma) were cultured in Minimum essential medium (MEM) containing 10% FBS, penicillin, and streptomycin. A549 cells (human lung carcinoma) and IMR90 cells (human fetal lung fibroblast) were cultured in Dulbecco’s modified Eagle’s medium (DMEM) with 10% FBS, penicillin, and streptomycin. All cells were cultured at 37 °C under a humidified atmosphere containing 5% CO2.
(§2) Jurkat, HeLa-S3, A549 cells (2.0 × 10^5 cells/mL) and IMR90 cells (1.0 × 10^5 cells/mL) were incubated in the presence of 3–7 for 1 h, and etoposide, cisplatin and celastrol for 24 h (50 μL) in cell culture medium under CO2 at 37 °C in 96-well plates (BD Falcon). MTT reagent (5 mg/mL) in PBS (10 μL) was then added to the cells. After incubation at 37 °C for 4 h, a formazan lysis solution (10% sodium dodecyl sulfate (SDS) in 0.01 N HCl) (100 μL) was added and the resultant solution was incubated overnight under the same conditions, which was followed by measurement of the absorbance at 570 nm using a microplate reader (ARVO, PerkinElmer).

HeLa-S3 cells [2] = assay: cells; settings: read-out: EC50 against HeLa-S3 cells
Experimental: as §1, §2

IMR90 cells = assay: cells; settings: read-out: EC50 against IMR90 cells
Experimental: as §1, §2

Jurkat cells [3] = assay: cells; settings: read-out: EC50 against Jurkat cells
Experimental: as §1, §2

[4] = tested on: Ca^2+ concentrations in mitochondria and cytosol in HeLa-S3 cells; assay: Rhod-2/AM and Rhod-4/AM emission (mitochondrial and cytosolic Ca2+) in HeLa-S3 cells; type: cell-based, human; settings: 4 5 μM 1 h; for Emission of Rhod-2/AM (mitochondrial Ca2+) in HeLa-S3 cells: celastrol or cisplatin 100 μM 2–6 h
Experimental: (§3) Jurkat, HeLa-S3, and A549 cells (2.0 × 10^5 cells) were preincubated with Rhod-2/AM (final concentration = 5 μM) or Rhod-4/AM (final concentration = 5 μM) in medium under 5% CO2 at 37 °C for 30 min and then treated with 4 (final concentration = 2.5, 5, or 10 μM) for 0, 15, 30, 45, and 60 min. HeLa-S3 and A549 cells were detached by accutase, immediately after which the cells were suspended in 300 μL of cell culture medium and then analyzed on a flow cytometer (FACS Calibur cytometer, Becton), and the data were analyzed using the FlowJo software (FlowJo, LCC).
(§4) Jurkat, HeLa-S3, A549, and IMR90 cells (2.0 × 10^5 cells) were stained with Rhod-2/AM or Rhod-4/AM (final concentration = 5 μM) for 30 min at 37 °C under 5% CO2. The cells were washed with PBS and were treated with 4 (final concentration = 2.5, 5, or 10 μM) in cell culture medium for 30 and 60 min at 37 °C under 5% CO2. To test the effect of celastrol and cisplatin in HeLa-S3 and A549 cells, the cells were incubated with celastrol (final concentration = 100 μM) and cisplatin (final concentration = 100 μM) for 2–6 h. After washing with PBS, the cells were observed via fluorescence microscopy (BZ-X800, Keyence) using a Greiner CELLview Petri dish (35 × 10 mm^2). Emission images were observed using a TRITC filter (excitation 540 nm, emission 605 nm).
(§5) Jurkat, HeLa-S3, A549, and IMR90 cells (8.0 × 10^4 cells) were incubated with CCCP or 2-APB for 1 h and then stained with Rhod-2/AM or Rhod-4/AM (final concentration = 5 μM) for 30 min at 37 °C under 5% CO2. The cells were washed with PBS and were treated with 4 (final concentration = 2.5, 5, or 10 μM) in PBS for 0–60 min at 37 °C in a microplate reader (ARVO, PerkinElmer). Excitation at 540 nm and emission at 590 nm were used for the measurement of Rhod-2/AM and Rhod-4/AM on the microplate reader.

[5] = tested on: Ca^2+ concentrations in mitochondria and cytosol in A549 cells; assay: Rhod-2/AM and Rhod-4/AM emission (mitochondrial and cytosolic Ca2+) in A549 cells; type: cell-based, human; settings: 4 10 μM 1 h; celastrol 100 μM 2–6 h
Experimental: as §3, §4, §5

HeLa-S3 cells [6] = assay: Costaining of ER and mitochondria (ERTracker Red, MitoTracker Green), confocal microscopy, HeLa-S3 cells; type: cell-based, human; settings: 4 5 μM, 5 and 10 min; celastrol 100 μM
Experimental: (§6) Jurkat, HeLa-S3, A549, and IMR90 cells (2.0 × 10^5 cells) were incubated with 4 (final concentration = 2.5 μM (for Jurkat), 5 μM (for HeLa-S3), 10 μM (for A549) and 5 μM and 50 μM (for IMR90)) in cell culture medium at 37 °C under 5% CO2. After incubation, MitoTracker Green (final concentration = 100 nM (for Jurkat) or 500 nM (for HeLa-S3, A549 and IMR90)), or ERTracker Red (final concentration = 500 nM (for Jurkat) or 1 μM (for HeLa-S3, A549 and IMR90)) were applied for 1 h under the same conditions. After washing with PBS, the cells were observed via confocal fluorescence microscopy (FluoView, FV-1000, Olympus). Excitation at 473 nm and emissions from 485 to 585 nm were used for detecting the MitoTracker Green. Excitation at 559 nm and emissions from 570 to 670 nm were used for detecting the ERTracker Red. Exposure time was 20 μs/pixel.

A549 cells [7] = assay: Costaining of ER and mitochondria (ERTracker Red, MitoTracker Green), confocal microscopy, A549 cells; type: cell-based, human; settings: 4 10 μM, 15 min; celastrol 100 μM
Experimental: as §6

[8] = tested on: labile Fe^2+ in mitochondria of Jurkat cells; assay: Mito-FerroGreen fluorescence microscopy in Jurkat cells; type: cell-based; settings: 4 2.5 μM 1 h; celastrol 5 μM, etoposide 5 μM, cisplatin 100 μM 24 h
Experimental: (§7) Jurkat cells (2.0 × 10^5 cells) were treated with 4 (2.5 μM), etoposide (5 μM), cisplatin (100 μM) and celastrol (5 μM) and stained with Mito-FerroGreen (a probe for labile Fe^2+ in mitochondria) (5 μM) and zinquin (a probe for intracellular Zn^2+) (25 μM). The cell images were observed via fluorescence microscopy.

[9] = tested on: intracellular Zn^2+ in Jurkat cells; assay: Zinquin fluorescence microscopy in Jurkat cells; type: cell-based; settings: 4 2.5 μM 1 h; celastrol 5 μM, etoposide 5 μM, cisplatin 100 μM 24 h
Experimental: as §7

Jurkat cells [10] = assay: MTT assay of Jurkat cells treated with 4 or celastrol in the presence of inhibitors; type: cell-based; settings: DIDS 75 or 100 μM, RuRed 75 μM; for Inhibition of 4-induced cell death in Jurkat cells: 4 2.5 μM 1 h, Z-VAD-fmk 15 μM, necrostatin-1 30 μM, 3-MA 10 μM, CCCP 40 μM, 2-APB 50 or 100 μM
Experimental: (a) Jurkat cells: Jurkat cells (2.0 × 10^5 cells/mL) in RPMI 1640 medium with 10% FBS were pretreated with the inhibitors (Z-VAD-fmk (final concentration = 15 μM), necrostatin-1 (final concentration = 30 μM), 3-MA (final concentration = 10 μM), and DIDS (75 or 100 μM)) for 3 h or pretreated with other inhibitors (CCCP (40 μM), FCCP (40 μM), 2-APB (50 or 100 μM) and RuRed (75 μM)) for 1 h under 5% CO2 at 37 °C. After incubation, 4 (final concentration = 2.5 μM) was added to the cell suspension, which was then incubated for 1 h at 37 °C. To test the effect of celastrol, the cells were pretreated with the aforementioned inhibitors and then incubated with celastrol (5 μM) for 24 h. MTT reagent (5 mg/mL) in PBS (10 μL) was added to the cells. After incubation at 37 °C for 4 h, a formazan lysis solution (10% sodium dodecyl sulfate (SDS) in 0.01 N HCl) (100 μL) was added, and the resultant solution was incubated overnight under the same conditions, followed by measurement of the absorbance at 570 nm using a microplate reader (ARVO, PerkinElmer).

HeLa-S3 cells [11] = assay: MTT assay of HeLa-S3 cells treated with 4 or celastrol in the presence of inhibitors; type: cell-based, human; settings: 4 5 μM 1 h; Z-VAD-fmk 100 μM, necrostatin-1 100 μM, 3-MA 5 mM, CCCP 160 μM, DIDS 75 or 100 μM
Experimental: (b) HeLa-S3 cells: HeLa-S3 cells (2.0 × 10^5 cells/mL) in MEM medium with 10% FBS were pretreated with the inhibitors (3-MA (5 mM), and DIDS (75 or 100 μM)) for 3 h or pretreated with other inhibitors (Z-VAD-fmk (100 μM), necrostatin-1 (100 μM), CCCP (160 μM), and FCCP (80 μM)) for 1 h under 5% CO2 at 37 °C. After the incubation, 4 (final concentration = 5 μM) was added to the cell suspension, which was then incubated for 1 h at 37 °C. Subsequent procedures were the same as those used for the Jurkat cells.

A549 cells [12] = assay: MTT assay of A549 cells treated with 4 or celastrol in the presence of inhibitors; type: cell-based, human; settings: 4 10 μM 1 h; Z-VAD-fmk 100 μM, necrostatin-1 100 μM, 3-MA 1 mM, CCCP 250 μM, DIDS 250 μM
Experimental: (c) A549 cells: A549 cells (2.0 × 10^5 cells/mL) in DMEM medium with 10% FBS were pretreated with the inhibitors (3-MA (1 mM), and DIDS (250 μM)) for 3 h or pretreated with other inhibitors (Z-VAD-fmk (100 μM), necrostatin-1 (100 μM), CCCP (250 μM), and FCCP (10 μM)) for 1 h under 5% CO2 at 37 °C. After incubation, 4 (final concentration = 10 μM) was added to the cell suspension, which was then incubated for 1 h at 37 °C. Subsequent procedures were the same as those used for the Jurkat cells.

Jurkat cells [13] = assay: Costaining of ER and mitochondria (ERTracker Red, MitoTracker Green), confocal microscopy, Jurkat cells; type: cell-based; settings: 4 2.5 μM, CCCP 40 μM
Experimental: as §6

[14] = Homo sapiens, A549, read-out: EC50 against A549 cells
[15] = MTT, incubation 24 h (etoposide, cisplatin, celastrol)

Compound | Emission from Mito-FerroGreen (free Fe2+ in mitochondria) in Jurkat cells [8] | Emission from zinquin (intracellular free Zn2+) in Jurkat cells [9] | Inhibition of 4-induced cell death in Jurkat cells (Jurkat cells [10]) | Inhibition of 4-induced cell death in HeLa-S3 cells (HeLa-S3 cells [11]) | Inhibition of 4-induced cell death in A549 cells (A549 cells [12]) | further results
CC1=C(O)C(=O)C=C2C1=CC=C1[C@@]2(C)CC[C@@]2(C)[C@@H]3C[C@](C)(C(=O)O)CC[C@]3(C)CC[C@]12C [celastrol] | negligibly enhanced | negligibly enhanced | – | – | – | EC50 (A549 cells [1]; [14]): 31 ± 2.2 µM; EC50 (HeLa-S3 cells [2]; Homo sapiens, HeLa S3, 24 h): 22 ± 6 µM; EC50 (IMR90 cells; Homo sapiens, IMR-90, 24 h): > 25 µM; EC50 (Jurkat cells [3]; Homo sapiens, Jurkat, 24 h): 0.9 ± 0.1 µM; Emission of Rhod-4/AM (cytosolic Ca2+) in HeLa-S3 cells ([4]; celastrol 100 μM 2–6 h): mitochondrial and cytoplasmic Ca^2+ overload; Emission of Rhod-2/AM (mitochondrial Ca2+) in HeLa-S3 cells [4]: mitochondrial and cytoplasmic Ca^2+ overload; Emission of Rhod-2/AM (mitochondrial Ca2+) in A549 cells [5]: mitochondrial Ca^2+ overload; Emission of Rhod-4/AM (cytosolic Ca2+) in A549 cells [5]: negligibly changed; Overlap of emission from MitoTracker Green and ERTracker Red in HeLa-S3 cells (HeLa-S3 cells [6]): weaker overlap; Overlap of emission from MitoTracker Green and ERTracker Red in A549 cells (A549 cells [7]): weaker overlap
Cn1cnc(N)c2ncnc1-2 [3-MA, 3-methyladenine] | – | – | negligibly inhibited | negligibly inhibited | negligibly inhibited | –
N.N.[Cl][Pt][Cl] [cisplatin] | increases in both free-Fe^2+ and free-Zn^2+ | increases in both free-Fe^2+ and free-Zn^2+ | – | – | – | EC50 (A549 cells [1]; read-out: EC50 against A549 cells, MTT, incubation 24 h (etoposide, cisplatin, celastrol)): > 100 µM; EC50 (HeLa-S3 cells [2]; [15]): 15 ± 3.4 µM; EC50 (IMR90 cells; [15]): > 12.5 µM; EC50 (Jurkat cells [3]; [15]): 5.8 ± 1.4 µM; Emission of Rhod-2/AM (mitochondrial Ca2+) in HeLa-S3 cells [4]: weak enhancement
COC(=O)CC(NC(=O)C(C)NC(=O)C(NC(=O)OCc1ccccc1)C(C)C)C(=O)CF (stereo not drawn) [Z-VAD-fmk, benzyloxycarbonyl-VAD(OMe)-fluoromethylketone] (Cbz-Val-Ala-Asp(OMe)-CH2F; configuration not given here) | – | – | negligibly inhibited | negligibly inhibited | negligibly inhibited | –
COc1cc([C@@H]2c3cc4c(cc3[C@@H](O[C@@H]3O[C@@H]5CO[C@@H](C)O[C@H]5[C@H](O)[C@H]3O)[C@H]3COC(=O)[C@H]23)OCO4)cc(OC)c1O [etoposide] | increases in both free-Fe^2+ and free-Zn^2+ | increases in both free-Fe^2+ and free-Zn^2+ | – | – | – | EC50 (A549 cells [1]; [14]): > 100 µM; EC50 (HeLa-S3 cells [2]; Homo sapiens, HeLa S3, 24 h): > 100 µM; EC50 (IMR90 cells; Homo sapiens, IMR-90, 24 h): > 25 µM; EC50 (Jurkat cells [3]; Homo sapiens, Jurkat, 24 h): 3.1 ± 0.1 µM
N#CC(C#N)=NNc1cccc(Cl)c1 [CCCP, carbonyl cyanide 3-chlorophenylhydrazone] | – | – | considerably inhibited | considerably inhibited | considerably inhibited | Inhibition of the 4-induced overlap of emission from MitoTracker Green and ERTracker Red in Jurkat cells (Jurkat cells [13]): considerably inhibited
CN1C(=O)C(Cc2c[nH]c3ccccc23)NC1=S (stereo not drawn) [necrostatin-1] | – | – | negligibly inhibited | negligibly inhibited | negligibly inhibited | –
O=S(=O)(O)c1cc(N=C=S)ccc1C=Cc1ccc(N=C=S)cc1S(=O)(=O)O [DIDS, 4,4′-diisothiocyano-2,2′-stilbenedisulfonic acid] | – | – | considerably inhibits | considerably inhibits | considerably inhibits | Inhibition of celastrol-induced cell death in Jurkat cells (Jurkat cells [10]; celastrol 5 μM 24 h, 2-APB 50 μM): did not significantly stop cell death
